Assay results: paper PMC12320831, “Synthesis and Biological Evaluation of New Chalcogen Semicarbazone (S, Se) and Their Azole Derivatives against Chagas Disease” (Journal of Medicinal Chemistry, 2024)
“And” between values parts separate entries of the source, which are not always exact repeats. Equal values may be shown once. Read-outs that look alike come from different tables or passages of the source.

Key:
T. cruzi CAI/72 strain [1] = test: Antiparasitic activity in C2C12 cells infected with T. cruzi CAI/72 (image-based assay); type: cell-based; conditions: Trypanosoma cruzi, read-out: Anti-Tc CAI/72 activity (%)
recombinant Cz (cruzain) = target: T1, recombinant Cz (cruzain) (Trypanosoma cruzi, UniProt P25779); test: biochemical; conditions: for SICz: ratio between IC50 hCatL and IC50 Cz
T1 construct: Cz was expressed and purified as described in da Silva et al; made in house
T1 sequence (P25779 123-337 limits assumed): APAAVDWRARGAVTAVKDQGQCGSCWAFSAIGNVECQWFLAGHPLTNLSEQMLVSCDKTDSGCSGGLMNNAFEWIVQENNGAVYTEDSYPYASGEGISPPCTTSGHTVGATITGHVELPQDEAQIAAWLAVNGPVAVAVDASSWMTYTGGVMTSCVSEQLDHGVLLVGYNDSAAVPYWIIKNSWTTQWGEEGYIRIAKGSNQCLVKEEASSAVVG
Outline: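 Cruzain (1 nM) was preincubated 10 min with compound in 0.1 M sodium acetate pH 5.5, 1 mM DTT, 0.01% Triton X-100, then 2.5 μM Z-FR-AMC (final) was added. Fluorescence (360/460 nm) was read for 10 min at 25 °C and normalized to DMSO.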

[2] = Host cell cytotoxicity (C2C12 viability); type: cell-based, Mouse; conditions: mouse, C2C12 myoblast cells infected with trypomastigotes; for viability at 48 h, 10 µM: < 50% viability considered cytotoxic; for CC50 at 48 h: viability calculated at 10 μM
Outline: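 Mouse C2C12 myoblasts co-seeded with CAI/72 trypomastigotes (10:1 parasite:cell) on compound, 48 h at 37 °C, 5% CO2. DAPI-stained fixed cells imaged; parasites per host cell normalized to 40 μM BNZ and DMSO. EC50 and C2C12 viability from dose-response curves, three biological replicates in triplicate.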

[3] = target: T2, Recombinant human cathepsin L (hCatL) (Homo sapiens, UniProt P07711); test: Human cathepsin L inhibition assay (Z-FR-AMC substrate); type: biochemical
T2 construct: purchased R&D Systems 952-CY
T2 sequence (P07711 114-333): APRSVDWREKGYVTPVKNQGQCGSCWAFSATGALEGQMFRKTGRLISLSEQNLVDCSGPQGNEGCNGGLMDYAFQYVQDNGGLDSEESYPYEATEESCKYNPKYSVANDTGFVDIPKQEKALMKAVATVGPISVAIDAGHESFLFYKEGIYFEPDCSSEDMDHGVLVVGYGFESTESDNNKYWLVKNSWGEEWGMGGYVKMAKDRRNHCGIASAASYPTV
Procedure: Compounds were screened at 10 μM. […] The experiment was performed for 30 min.
All experiments were accomplished in a 384-well black microplate, using a Synergy HTX (Biotek) plate reader at 25 °C with absorption/emission wavelengths of 360/460 nm. All assays were performed in triplicate wells and DMSO was used as a vehicle control. Enzymatic activity was measured and normalized to DMSO controls, and the inhibitor E-64 (10 μM) was used as a positive control for all assays. All experiments were performed in triplicates, with at least two independent assays (n = 6 data points). IC50 values were determined through nonlinear regression. Obtained data were treated and analyzed using GraphPad Prism 9.0 (GraphPad Software, La Jolla, California).

[4] = tested on: Cz isolated and purified from Tulahuen 2 strain epimastigotes; set-up: method as in Jasinski et al.; conditions: different assay conditions and enzyme origin; ref Jasinski et al.; cited from earlier work
T. cruzi CAI/72 strain [5] = test: Antiparasitic activity in C2C12 cells infected with T. cruzi CAI/72 (image-based assay); type: cell-based; conditions: Trypanosoma cruzi

CN1CCN(C(=O)N[C@@H](Cc2ccccc2)C(=O)N[C@H](/C=C/S(=O)(=O)c2ccccc2)CCc2ccccc2)CC1 [Compound K777, reference compound]
inhibition at 3 µM (T. cruzi CAI/72 strain [1]): 61%
SICz (recombinant Cz (cruzain)): 0.13
viability at 48 h, 10 µM [2]: > 100%
CC50 at 48 h [2]: > 10000 nM

C/C(=N\NC(N)=S)c1cccc(Cl)c1 [Compound S1i, (E)-2-(1-(3-Chlorophenyl)ethylidene)hydrazine-1-carbothioamide]
inhibition at 10 µM ([3]; 10 µM): 97.2%
IC50 ([3]; each of two biological replicates in triplicate, read-out: IC50 hCatL, single biological replicate (Figure 4)): 58 nM and 120 nM
IC50 ([3]; mean of two experiments in triplicate (n = 6) ± SEM, read-out: IC50 hCatL): 89.4 ± 31.4 nM
IC50 [4]: 29900 nM
inhibition at 10 µM (T. cruzi CAI/72 strain [5]; 10 µM, C2C12 infected cells, read-out: Anti-Tc CAI/72 activity (%)): 56.2%
EC50 (T. cruzi CAI/72 strain [5]; intracellular amastigotes in C2C12 cells, 48 h, mean of three experiments in triplicate (n = 9) ± SD, read-out: EC50 Tc CAI/72): ~10000 nM
Cz inhibition (%) (recombinant Cz (cruzain); 10 µM): 100.00%
IC50 (recombinant Cz (cruzain); each of two biological replicates in triplicate, read-out: IC50 Cz, single biological replicate (Figure 3)): 2 nM and 3 nM
IC50 (recombinant Cz (cruzain); mean of two experiments in triplicate (n = 6) ± SEM, read-out: IC50 Cz): 2.5 ± 0.51 nM
SICz (recombinant Cz (cruzain)): 35.76
SICz (recombinant Cz (cruzain); listed as S 1i): 36
inhibition at 10 µM (recombinant Cz (cruzain); read-out: Cz inhibition (%), 10 µM): > 85%
viability at 48 h, 10 µM [2]: > 100%
CC50 at 48 h [2]: > 10000 nM
